The results in this text go back to patent US20230167118A1, “DEGRADATION OF BRUTON'S TYROSINE KINASE (BTK) BY CONJUGATION OF BTK INIDBITORS WITH E3 LIGASE LIGAND AND METHODS OF USE” (BEIGENE, LTD., priority 2020, published 2023).

Where a name gives a salt, the structure may show the parent alone.

One assay relates to HEK-293 cells. The experiment in a line: HEK-293 Cytotoxicity Assay (CellTiter-Glo). Format: cell-based. The conditions noted are these: Homo sapiens, HEK293, 72 h incubation, CellTiter-Glo luminescence. The gist of the method: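 HEK-293 cells treated 72 h with 8 concentrations (4-fold dilutions, 0.2% DMSO final). Viability read by CellTiter-Glo luminescence; IC50 from four-parameter logistic fit of % inhibition.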

For a further assay, the target named is T1, BTK (Homo sapiens, UniProt Q06187).
T1 construct: High control=Cell group with added DMSO and without compound, indicating microplate readings without BTK degradation; endogenous in cells; host or cells: TMD-8 cells
Description: Cell Degradation: BTK degradation in TMD-8 cells, HTRF assay. Format: cell-based. Particulars: 6 h treatment, IC50 (DC50) of BTK degradation. A digest of the protocol: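 TMD-8 cells treated 6 h with 8-dose 6-fold dilutions in 0.2% DMSO, then lysed and BTK quantified by HTRF (665/620 nm). Degradation % normalised to high/low controls; DC50 from four-parameter fit, Dmax as maximal degradation.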

T1 sequence (Q06187 whole entry): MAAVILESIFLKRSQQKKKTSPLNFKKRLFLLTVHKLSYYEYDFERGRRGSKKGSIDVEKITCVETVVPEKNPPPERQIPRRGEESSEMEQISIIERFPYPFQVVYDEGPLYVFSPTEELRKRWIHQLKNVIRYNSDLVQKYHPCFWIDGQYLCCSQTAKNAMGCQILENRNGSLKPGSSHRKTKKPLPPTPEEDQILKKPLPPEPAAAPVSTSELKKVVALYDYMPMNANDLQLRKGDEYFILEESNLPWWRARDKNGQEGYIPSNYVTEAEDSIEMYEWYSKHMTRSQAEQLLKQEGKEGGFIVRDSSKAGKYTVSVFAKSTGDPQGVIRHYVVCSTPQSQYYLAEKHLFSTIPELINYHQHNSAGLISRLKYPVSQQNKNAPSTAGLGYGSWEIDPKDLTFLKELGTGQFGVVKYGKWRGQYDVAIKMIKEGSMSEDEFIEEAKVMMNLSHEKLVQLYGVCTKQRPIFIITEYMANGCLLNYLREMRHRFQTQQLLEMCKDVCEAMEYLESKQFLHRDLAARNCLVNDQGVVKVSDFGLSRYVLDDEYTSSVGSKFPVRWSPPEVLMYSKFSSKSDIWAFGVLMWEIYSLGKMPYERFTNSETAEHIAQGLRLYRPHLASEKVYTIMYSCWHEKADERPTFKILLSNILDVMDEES

`Cc1cc(-c2ncnc3[nH]c(-c4ccc(N5CC6(CN(CC7CCN(c8ccc(N9CCC(=O)NC9=O)cc8)CC7)C6)C5)cc4)cc23)ccc1[C@@H](C)NC(=O)c1nc(C(C)(C)C)no1` [Example 164, (R)-3-(tert-butyl)-N-(1-(4-(6-(4-(6-((1-(4-(2,4-dioxotetrahydropyrimidin-1(2H)-yl)phenyl)piperidin-4-yl)methyl)-2,6-diazaspiro[3.3]heptan-2-yl)phenyl)-7H-pyrrolo[2,3-d]pyrimidin-4-yl)-2-methylphenyl)ethyl)-1,2,4-oxadiazole-5-carboxamide] gave an IC50 in the assay with HEK-293 cells of over 10000 nM. This molecule returned a 50% degradation concentration (DC50) at BTK of 1.26 nM.
In the same order, the values of `Cc1cc(-c2ncnc3[nH]c(-c4ccc(C5CN(CC6CCN(c7ccc(N8CCC(=O)NC8=O)cc7)CC6)C5)cc4)cc23)ccc1[C@@H](C)NC(=O)c1nc(C(C)(C)C)no1` [Example 157, (R)-3-(tert-butyl)-N-(1-(4-(6-(4-(1-((1-(4-(2,4-dioxotetrahydropyrimidin-1(2H)-yl)phenyl)piperidin-4-yl)methyl)azetidin-3-yl)phenyl)-7H-pyrrolo[2,3-d]pyrimidin-4-yl)-2-methylphenyl)ethyl)-1,2,4-oxadiazole-5-carboxamide] are over 10000 nM and 1.04 nM.
For `Cc1cc(-c2ncnc3[nH]c(-c4ccc(N5CCN(CC6CCN(c7cccc(N8CCC(=O)NC8=O)c7)CC6)CC5)cn4)cc23)ccc1[C@@H](C)NC(=O)c1nc(C(C)(C)C)no1` [Example 119, (R)-3-(tert-butyl)-N-(1-(4-(6-(5-(4-((1-(3-(2,4-dioxotetrahydropyrimidin-1(2H)-yl)phenyl)piperidin-4-yl)methyl)piperazin-1-yl)pyridin-2-yl)-7H-pyrrolo[2,3-d]pyrimidin-4-yl)-2-methylphenyl)ethyl)-1,2,4-oxadiazole-5-carboxamide], in that order: over 10000 nM and 1.2 nM.
For `Cc1c([C@@H](C)NC(=O)c2noc(C(C)(C)C)n2)ccc(-c2ncnc3[nH]c(-c4ccc(N5CCN(CC6CCN(c7ccc(N8CCC(=O)NC8=O)cc7)CC6)CC5)nc4)cc23)c1F` [Example 140, (R)-5-(tert-butyl)-N-(1-(4-(6-(6-(4-((1-(4-(2,4-dioxotetrahydropyrimidin-1(2H)-yl)phenyl)piperidin-4-yl)methyl)piperazin-1-yl)pyridin-3-yl)-7H-pyrrolo[2,3-d]pyrimidin-4-yl)-3-fluoro-2-methylphenyl)ethyl)-1,2,4-oxadiazole-3-carboxamide], in that order: over 10000 nM and 1.24 nM.
Consider `Cc1cc(-c2ncnc3[nH]c(-c4ccc(N5CCN(CC6CCN(c7ccc(N8CCC(=O)NC8=O)cc7)CC6)CC5)c(F)c4)cc23)ccc1[C@@H](C)NC(=O)c1nc(C(C)(C)C)no1` [Example 38, (R)-3-(tert-butyl)-N-(1-(4-(6-(4-(4-((1-(4-(2,4-dioxotetrahydropyrimidin-1(2H)-yl)phenyl)piperidin-4-yl)methyl)piperazin-1-yl)-3-fluorophenyl)-7H-pyrrolo[2,3-d]pyrimidin-4-yl)-2-methylphenyl)ethyl)-1,2,4-oxadiazole-5-carboxamide, Formate], for which the IC50 in the assay with HEK-293 cells was over 10000 nM. Further, half-maximal degradation at BTK (DC50) was put at 2.1 nM.
In the same order, the values of `Cc1nn(C2CCN(CC3CCN(c4ccc(N5CCC(=O)NC5=O)cc4)CC3)CC2)c(C)c1-c1cc2c(-c3cc(CO)c([C@@H](C)NC(=O)c4noc(C(C)(C)C)n4)cc3F)ncnc2[nH]1` [Example 149, (R)-5-(tert-butyl)-N-(1-(4-(6-(1-(1-((1-(4-(2,4-dioxotetrahydropyrimidin-1(2H)-yl)phenyl)piperidin-4-yl)methyl)piperidin-4-yl)-3,5-dimethyl-1H-pyrazol-4-yl)-7H-pyrrolo[2,3-d]pyrimidin-4-yl)-5-fluoro-2-(hydroxymethyl)phenyl)ethyl)-1,2,4-oxadiazole-3-carboxamide] are over 10000 nM and 0.27 nM.
